Patent US20250186584A1, “METHODS OF TREATING BILIARY TRACT CANCER USING ANTI-PD-L1 ANTIBODY IN COMBINATION WITH CHEMOTHERAPY” (ASTRAZENECA AB, priority 2022, published 2025)
Values joined by “and” are separate entries in the source; they are usually repeats but may differ in a detail not shown here. Equal entries are not always repeated. “Also recorded” adds a separate entry of the source.

Key:
[1] = test system: unresectable, locally advanced, or metastatic biliary tract cancer; assay: TOPAZ-1 phase 3 study: efficacy of durvalumab or placebo plus gemcitabine and cisplatin (OS, PFS, tumor response per RECIST v1.1); type: in vivo, human; details: for Difference in overall survival: versus placebo plus gemcitabine and cisplatin; for Objective response rate: investigator assessment, RECIST v1.1, patients with measurable disease at baseline
Protocol: This is a randomized, double-blind, placebo controlled, multi-center, global, Phase III study which determined the efficacy and safety of first-line treatment with durvalumab in combination with gemcitabine/cisplatin versus placebo in combination with gemcitabine/cisplatin in patients with previously untreated, unresectable, locally advanced, or metastatic BTC.
Arm A: Durvalumab plus gemcitabine/cisplatin combination therapy. Durvalumab 1500 mg via intravenous (IV) infusion q3w, starting on Cycle 1 in combination with cisplatin 25 mg/m^2 and gemcitabine 1000 mg/m^2 (each administered on Days 1 and 8 q3w) up to 8 cycles, followed by durvalumab 1500 mg as monotherapy q4w until clinical progression or RECIST 1.1-defined radiological progressive disease (PD), unless there is unacceptable toxicity, withdrawal of consent, or another discontinuation criterion is met.
Arm B: Placebo plus gemcitabine/cisplatin therapy. Placebo via IV infusion q3w, starting on Cycle 1 in combination with cisplatin 25 mg/m^2 and gemcitabine 1000 mg/m^2 (each administered on Days 1 and 8 q3w) up to 8 cycles, followed by placebo monotherapy q4w until clinical progression or RECIST 1.1-defined radiological PD, unless there is unacceptable toxicity, withdrawal of consent, or another discontinuation criterion is met.
Adults aged ≥18 years with histologically confirmed unresectable, locally advanced, or metastatic adenocarcinoma of the biliary tract, including intrahepatic or extrahepatic cholangiocarcinoma and gallbladder carcinoma, were eligible for inclusion. Eligible patients included those with previously untreated disease that was unresectable or metastatic at initial diagnosis and those who developed recurrent disease >6 months after surgery with curative intent and >6 months after the completion of adjuvant therapy. Other inclusion criteria included an Eastern Cooperative Oncology Group (ECOG) performance status of 0 or 1, ≥1 measurable lesion per Response Evaluation Criteria in Solid Tumors (RECIST) v1.1, and no prior exposure to immune-meditated therapy. Patients were excluded if they had ampullary carcinoma, active or prior documented autoimmune or inflammatory disorders, or known allergy or hypersensitivity to any study treatment.
TOPAZ-1 was a phase 3, randomized, double-blind, placebo-controlled, global study. Patients were randomly assigned in a 1:1 ratio to receive durvalumab in combination with gemcitabine and cisplatin or placebo in combination with gemcitabine and cisplatin.
Baseline tumor assessments were performed using images acquired≤28 days before randomization. During the study period, tumor assessments were performed every 6 weeks (±1 week) for the first 24 weeks after randomization, and then every 8 weeks (±1 week) thereafter, until radiological disease progression, followed by ≥1 additional follow-up scan. Survival assessments were performed every 2 months following treatment discontinuation. Patients on treatment or in survival follow-up were contacted following the data cutoff for the interim analysis to provide complete survival data. Newly acquired tumor biopsy samples or archival samples taken≤3 years prior to screening were obtained by an image-guided core needle or by excision from all screened patients. Tissue samples were retrospectively evaluated for programmed cell death ligand 1 (PD-L1) expression by the Ventana PD-L1 (SP263) immunohistochemistry assay in all randomized patients using the tumor area positivity (TAP) score method. “TAP” is the proportion of tumor and/or immune cells with PD-L1 staining at any intensity and can be used interchangeably with “TIP.” A TAP score of ≥1% was defined as PD-L1 staining of any intensity in tumor cell membranes and/or tumor-associated immune cells covering ≥1% of the tumor area. A TAP score of <1% was defined as PD-L1 staining of any intensity in tumor cell membranes and/or tumor-associated immune cells covering <1% of tumor area. […]

[2] = test system: xenograft model; details: via a T-cell dependent mechanism; cited from earlier work
[3] = target: PD-L1 (Homo sapiens, UniProt Q9NZQ7); details: in vitro; cited from earlier work
[4] = patients with objective response

Sequence of PD-L1 (Q9NZQ7 19-290): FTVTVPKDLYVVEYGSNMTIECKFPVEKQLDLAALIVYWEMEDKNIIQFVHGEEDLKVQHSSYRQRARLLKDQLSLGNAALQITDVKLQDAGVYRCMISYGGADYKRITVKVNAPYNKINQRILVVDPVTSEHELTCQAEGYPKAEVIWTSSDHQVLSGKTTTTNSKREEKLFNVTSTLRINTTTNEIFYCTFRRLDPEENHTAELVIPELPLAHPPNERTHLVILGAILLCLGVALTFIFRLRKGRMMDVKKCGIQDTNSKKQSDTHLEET

Durvalumab plus Gemcitabine and Cisplatin: Durvalumab 1500 mg IV q3w with cisplatin 25 mg/m^2 and gemcitabine 1000 mg/m^2 up to 8 cycles, then durvalumab monotherapy q4w
Difference in overall survival ([1]; at 12 months): 6% | Difference in overall survival ([1]; at 18 months): 10% | Difference in overall survival ([1]; at 24 months): 15% | Median overall survival (95% CI) ([1]; full analysis set): 12.8 months | Objective response rate ([1]; listed as durvalumab+GemCis): 26.7% | Median duration of response [1, 4]: 6.4 mo | Median time to response [1, 4]: 1.6 mo | Percentage of patients with continued response ([1]; ≥3 months): 88.9% | Percentage of patients with continued response ([1]; ≥6 months): 59.3% | Percentage of patients with continued response ([1]; ≥9 months): 32.6% | Percentage of patients with continued response ([1]; ≥12 months): 26.1% | Abdominal pain upper, Grade 3/4 (adverse events of any causality): 0 no. | Adrenal insufficiency, Grade 3 or 4 (immune-mediated adverse events): 0 no. | Hyperthyroid events, Grade 3 or 4 (immune-mediated adverse events): 0 no. | Hypophysitis, Grade 3 or 4 (immune-mediated adverse events): 0 no. | Hypothyroid events, Grade 3 or 4 (immune-mediated adverse events): 0 no. | Myositis, Any Grade (immune-mediated adverse events): 0 no. | Myositis, Grade 3 or 4 (immune-mediated adverse events): 0 no. | Pancreatic events, Grade 3 or 4 (immune-mediated adverse events): 0 no. | Renal events, Any Grade (immune-mediated adverse events): 0 no. | Renal events, Grade 3 or 4 (immune-mediated adverse events): 0 no. | Thyroiditis, Grade 3 or 4 (immune-mediated adverse events): 0 no.

durvalumab: antibody that selectively binds PD-L1 and blocks the binding of PD-L1 to PD-1 and CD80 receptors
Tumor growth in a xenograft model [2]: inhibits tumor growth | PD-L1-mediated suppression of human T-cell activation [3]: can relieve PD-L1-mediated suppression of human T-cell activation | Benefit of the addition of durvalumab to gemcitabine and cisplatin, subgroup analysis of overall survival ([1]; FIG. 8): observed across all subgroups | Benefit of the addition of durvalumab to gemcitabine and cisplatin, overall survival by PD-L1 expression ([1]; TAP score, Ventana PD-L1 (SP263) assay): observed across PD-L1 expression; also recorded: observed regardless of PD-L1 expression | Overall survival hazard ratio (95% CI) ([1]; after 6 months, durvalumab versus placebo): 0.74 (0.58-0.94) | Estimated overall survival rate (95% CI) ([1]; at 12 months): 54.1% | Estimated overall survival rate (95% CI) ([1]; at 18 months): 35.1% | Estimated overall survival rate (95% CI) ([1]; at 24 months): 24.9% | Overall survival hazard ratio ([1]; durvalumab versus placebo, each plus gemcitabine and cisplatin, 95% CI 0.66-0.97, P=0.021): 0.80 | Hazard ratio for progression-free survival ([1]; durvalumab versus placebo, 95% CI 0.63-0.89, P=0.001): 0.75 | Objective response rate odds ratio ([1]; durvalumab versus placebo, 95% CI 1.11-2.31): 1.60 | Median (95% CI) progression-free survival ([1]; full analysis set): 7.2 months and 7.2 (6.7-7.4) months | Median overall survival (95% CI) ([1]; full analysis set): 12.8 (11.1-14.0) months | Objective response rate [1]: 26.7% | Hazard ratio for overall survival ([1]; patients with PD-L1 TAP score of >1%, durvalumab versus placebo, 95% CI 0.61-1.00): 0.79 | Hazard ratio for overall survival ([1]; patients with TAP score <1%, durvalumab versus placebo, 95% CI 0.60-1.23): 0.86 | Overall survival hazard ratio (95% CI) ([1]; up to 6 months, durvalumab versus placebo): 0.91 (0.66-1.26) | Percentage of patients with continued response ([1]; ≥9 months): 32.6% | Percentage of patients with continued response ([1]; ≥12 months): 26.1% | Additional toxicity to that observed with chemotherapy (in vivo): did not add additional toxicity | Anemia, Any Grade (in vivo): 48.2% | Any immune-mediated adverse event, Any Grade (in vivo): 12.7% | Any immune-mediated adverse event, Grade 3 or 4 (in vivo): 2.4% | Constipation, Any Grade (in vivo): 32.0% | Events in the other rare/miscellaneous category of immune-mediated adverse events (in vivo): immune-mediated arthritis | Nausea, Any Grade (in vivo): 40.2% | Neutropenia, Any Grade (in vivo): 31.7% | Treatment-related adverse event leading to discontinuation of any study treatment (in vivo): 8.9%
